≈ marks a conversion by molar mass, not a printed value. Where “and” joins values, the source holds several entries; their conditions need not be identical. Equal entries are not always repeated. Where two headings read alike, the source gives them in different places.
Columns and labels:
HER2 A775_G776insYVMA = target: T1, HER2 A775_G776insYVMA (Homo sapiens, UniProt P04626, INS775YVMA); experiment: In vitro cell based assay, PD IC50, 3T3_YVMA
T1 construct: expressed in transfected cells; host or cells: 3T3 (3T3_YVMA)

EGFR 19Del = target: T2, EGFR 19Del (Homo sapiens, UniProt P00533, DEL746-750); experiment: In vitro cell based assay, PD IC50, PC-9
T2 construct: Form A and B in vitro cell based assay; endogenous in cells; host or cells: PC-9

3T3_YVMA = experiment: In vitro cell based assay, anti-proliferation GI50, 3T3_YVMA; details: HER2 A775_G776insYVMA
[1] = Solubility in organic solvents and water; format: physicochemical; details: r.t.
Ba/F3_NPH = experiment: In vitro cell based assay, anti-proliferation GI50, Ba/F3_NPH; details: EGFR H773_V774insNPH
EGFR H773_V774insNPH = target: T3, EGFR H773_V774insNPH (Homo sapiens, UniProt P00533, INS773NPH); experiment: In vitro cell based assay, PD IC50, Ba/F3_NPH
T3 construct: expressed in transfected cells; host or cells: Ba/F3 (Ba/F3_NPH)

EGFR L858R/T790M = target: T4, EGFR L858R/T790M (Homo sapiens, UniProt P00533, L858R/T790M); experiment: In vitro cell based assay, PD IC50, NCI-H1975
T4 construct: Form A and B in vitro cell based assay; endogenous in cells; host or cells: NCI-H1975

[2] = PK study of Form A and Form B in Rat; format: in vivo; details: rat, in vivo; for AUC(0-t): read-out: Mean AUC0~48; for half-life: read-out: Mean t1/2 (converted); for Tmax: read-out: Median Tmax
A431 = experiment: In vitro cell based assay, anti-proliferation GI50, A431; details: Homo sapiens, A-431, EGFR Wildtype
[3] = Water activity study of Form A and Form B (slurry, XRPD); format: physicochemical; details: 24~27° C. (before dry)
Description: To study the effects of water on the stability of Form A and Form B, slurry experiments in the systems with different water activity were carried out. Form A or Form B was suspended separately in different water activity systems (Table 4). […] Residual solids were filtered and then dried in the vacuum oven at 45° C. for 8-24 hours. Dry solids were characterized by XRPD.

[4] = Solubility in bio-relevant media; format: physicochemical
[5] = Dynamic moisture sorption analysis (DVS); format: physicochemical
Description: DVS was determined using DVS Advantage-1 or Intrinsic (SMS, UK). The sample was tested at a targeted RH of 10 to 90% full cycle in step mode. The analysis was performed in 10% RH increments. Equilibrium:60 min RH (%) measurement points: First cycle: 0, 10, 20, 30, 40, 50, 60, 70, 80, 90. Second cycle: 90, 80, 70, 60, 50, 40, 30, 20, 10, 0.

[6] = Form A and Form B inter-conversion study (competitive slurry, XRPD); format: physicochemical
Description: Competitive slurry experiments were conducted to evaluate the relative stability of Form A and Form B. Inter-conversion study was performed at room temperature and 50° C. using single and binary solvents listed in the Table 1 below. About 80 mg (100 mg for 50° C.) of Form A and Form B (1:1, w/w) was weighed into sample vials (8 mL) and then 3 mL (2 mL for 50° C.) of solvents were added to each vial. The obtained suspensions were kept stirring for 7 days at room temperature and 50° C., then filtered at specified time. The wet and dried solids were analyzed by XRPD (dried in vacuum oven at 45° C.).
Form B was dominant in tested solvent systems with water activity below 0.15 at room temperature (24˜27° C.). […] Pure Form A and Form B were stable during drying process (50° C., vacuum) for at least 2 days.

[7] = PK study of Form A and Form B in Dog; format: in vivo; details: 10 mg/kg
PC-9 = experiment: In vitro cell based assay, anti-proliferation GI50, PC-9; details: Homo sapiens, PC-9, EGFR 19Del
EGFR Wildtype = target: T5, EGFR Wildtype (Homo sapiens, UniProt P00533); experiment: In vitro cell based assay, PD IC50, A431
T5 construct: Form A and B in vitro cell based assay; endogenous in cells; host or cells: A431

NCI-H1975 = experiment: In vitro cell based assay, anti-proliferation GI50, NCI-H1975; details: Homo sapiens, NCI-H1975, EGFR L858R/T790M

T5 sequence (P00533 25-1210): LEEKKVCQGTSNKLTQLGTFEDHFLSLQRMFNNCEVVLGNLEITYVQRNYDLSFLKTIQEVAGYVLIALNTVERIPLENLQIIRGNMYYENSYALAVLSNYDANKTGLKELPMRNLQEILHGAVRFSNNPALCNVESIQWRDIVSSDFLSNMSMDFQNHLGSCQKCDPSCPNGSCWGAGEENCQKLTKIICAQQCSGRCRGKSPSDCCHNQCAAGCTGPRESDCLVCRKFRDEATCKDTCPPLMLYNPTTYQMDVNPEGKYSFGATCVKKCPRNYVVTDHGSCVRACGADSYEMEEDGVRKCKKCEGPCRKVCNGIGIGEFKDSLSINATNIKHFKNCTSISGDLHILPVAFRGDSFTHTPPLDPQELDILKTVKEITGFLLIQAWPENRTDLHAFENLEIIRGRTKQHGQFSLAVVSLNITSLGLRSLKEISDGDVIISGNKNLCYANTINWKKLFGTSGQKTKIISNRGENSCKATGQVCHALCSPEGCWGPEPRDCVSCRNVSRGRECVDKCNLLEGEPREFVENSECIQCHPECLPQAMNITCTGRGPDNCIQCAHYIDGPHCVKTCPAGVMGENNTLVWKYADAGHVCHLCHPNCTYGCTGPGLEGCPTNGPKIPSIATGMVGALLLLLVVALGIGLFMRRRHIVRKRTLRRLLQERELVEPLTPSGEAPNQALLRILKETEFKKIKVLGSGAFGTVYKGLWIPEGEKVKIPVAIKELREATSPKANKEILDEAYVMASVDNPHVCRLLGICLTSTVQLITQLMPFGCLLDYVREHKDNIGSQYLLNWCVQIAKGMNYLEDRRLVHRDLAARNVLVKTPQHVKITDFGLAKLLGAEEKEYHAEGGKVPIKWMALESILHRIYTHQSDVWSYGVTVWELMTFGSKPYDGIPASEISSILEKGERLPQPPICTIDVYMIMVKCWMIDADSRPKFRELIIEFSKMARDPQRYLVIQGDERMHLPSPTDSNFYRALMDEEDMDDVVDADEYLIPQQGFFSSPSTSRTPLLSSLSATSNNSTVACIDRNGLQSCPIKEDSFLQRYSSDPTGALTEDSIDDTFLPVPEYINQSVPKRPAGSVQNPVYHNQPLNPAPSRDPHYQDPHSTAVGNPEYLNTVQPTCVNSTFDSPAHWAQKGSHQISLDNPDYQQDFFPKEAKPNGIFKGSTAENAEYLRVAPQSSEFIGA
T3 sequence (P00533 with tags, fused parts or gaps INS773NPH): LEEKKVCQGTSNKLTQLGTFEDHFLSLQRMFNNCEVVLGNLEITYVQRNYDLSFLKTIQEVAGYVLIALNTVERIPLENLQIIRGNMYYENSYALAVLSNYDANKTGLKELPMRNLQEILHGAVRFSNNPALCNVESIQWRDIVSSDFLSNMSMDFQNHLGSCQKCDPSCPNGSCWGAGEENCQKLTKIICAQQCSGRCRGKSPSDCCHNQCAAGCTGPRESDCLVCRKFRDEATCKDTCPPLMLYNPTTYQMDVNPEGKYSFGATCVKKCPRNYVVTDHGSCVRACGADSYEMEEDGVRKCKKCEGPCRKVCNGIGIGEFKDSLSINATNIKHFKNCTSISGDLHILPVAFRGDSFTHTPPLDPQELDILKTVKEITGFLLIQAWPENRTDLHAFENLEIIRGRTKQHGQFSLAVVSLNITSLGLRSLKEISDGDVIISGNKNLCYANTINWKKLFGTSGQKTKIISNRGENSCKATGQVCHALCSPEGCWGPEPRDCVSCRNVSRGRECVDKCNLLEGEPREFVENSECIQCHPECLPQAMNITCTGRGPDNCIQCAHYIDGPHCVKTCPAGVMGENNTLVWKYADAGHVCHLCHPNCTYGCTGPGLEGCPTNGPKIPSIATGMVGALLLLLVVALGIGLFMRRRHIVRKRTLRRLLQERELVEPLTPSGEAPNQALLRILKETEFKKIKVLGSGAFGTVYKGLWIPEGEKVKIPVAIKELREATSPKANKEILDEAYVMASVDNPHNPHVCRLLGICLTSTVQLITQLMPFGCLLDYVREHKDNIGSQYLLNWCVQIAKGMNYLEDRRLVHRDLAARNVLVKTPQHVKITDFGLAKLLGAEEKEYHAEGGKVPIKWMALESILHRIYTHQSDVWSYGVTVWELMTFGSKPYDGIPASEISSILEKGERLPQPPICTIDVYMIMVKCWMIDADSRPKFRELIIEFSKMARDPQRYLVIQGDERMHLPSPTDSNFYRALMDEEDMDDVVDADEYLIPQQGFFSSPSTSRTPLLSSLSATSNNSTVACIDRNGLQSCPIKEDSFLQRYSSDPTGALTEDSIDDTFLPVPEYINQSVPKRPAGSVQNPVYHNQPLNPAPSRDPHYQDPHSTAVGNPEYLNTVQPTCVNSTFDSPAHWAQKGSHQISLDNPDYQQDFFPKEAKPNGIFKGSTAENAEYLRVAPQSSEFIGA
T4 sequence (P00533 25-1210 T790M/L858R): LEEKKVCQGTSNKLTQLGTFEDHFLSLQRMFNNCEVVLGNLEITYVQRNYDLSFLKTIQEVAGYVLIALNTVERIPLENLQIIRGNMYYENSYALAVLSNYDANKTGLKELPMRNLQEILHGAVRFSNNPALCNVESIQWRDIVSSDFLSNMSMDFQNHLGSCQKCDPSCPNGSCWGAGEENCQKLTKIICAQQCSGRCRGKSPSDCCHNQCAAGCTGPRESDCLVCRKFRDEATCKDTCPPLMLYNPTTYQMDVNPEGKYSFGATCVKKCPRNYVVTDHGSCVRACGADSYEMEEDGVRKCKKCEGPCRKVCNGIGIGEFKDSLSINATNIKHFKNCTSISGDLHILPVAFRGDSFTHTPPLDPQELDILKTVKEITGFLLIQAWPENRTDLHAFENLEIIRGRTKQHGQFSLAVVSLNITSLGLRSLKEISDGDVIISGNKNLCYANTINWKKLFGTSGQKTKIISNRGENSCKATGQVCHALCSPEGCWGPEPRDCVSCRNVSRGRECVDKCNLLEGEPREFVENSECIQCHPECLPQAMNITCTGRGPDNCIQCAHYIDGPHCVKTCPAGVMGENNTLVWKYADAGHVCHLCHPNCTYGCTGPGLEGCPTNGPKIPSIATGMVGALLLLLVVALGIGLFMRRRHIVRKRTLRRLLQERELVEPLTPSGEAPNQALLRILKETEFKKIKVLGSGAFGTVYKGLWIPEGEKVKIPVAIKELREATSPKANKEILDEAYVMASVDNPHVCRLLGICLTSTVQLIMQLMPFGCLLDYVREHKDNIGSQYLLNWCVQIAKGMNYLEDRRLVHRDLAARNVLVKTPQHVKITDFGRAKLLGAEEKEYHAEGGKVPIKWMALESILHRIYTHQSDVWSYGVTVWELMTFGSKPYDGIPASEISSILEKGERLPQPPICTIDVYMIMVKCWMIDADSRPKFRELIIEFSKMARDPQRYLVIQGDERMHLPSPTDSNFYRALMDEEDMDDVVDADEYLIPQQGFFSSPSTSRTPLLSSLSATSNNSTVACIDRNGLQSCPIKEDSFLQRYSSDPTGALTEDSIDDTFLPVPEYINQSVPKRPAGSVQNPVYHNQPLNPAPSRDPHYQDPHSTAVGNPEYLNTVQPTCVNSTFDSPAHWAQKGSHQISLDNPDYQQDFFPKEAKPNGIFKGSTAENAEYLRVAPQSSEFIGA
T1 sequence (P04626 with tags, fused parts or gaps INS775YVMA): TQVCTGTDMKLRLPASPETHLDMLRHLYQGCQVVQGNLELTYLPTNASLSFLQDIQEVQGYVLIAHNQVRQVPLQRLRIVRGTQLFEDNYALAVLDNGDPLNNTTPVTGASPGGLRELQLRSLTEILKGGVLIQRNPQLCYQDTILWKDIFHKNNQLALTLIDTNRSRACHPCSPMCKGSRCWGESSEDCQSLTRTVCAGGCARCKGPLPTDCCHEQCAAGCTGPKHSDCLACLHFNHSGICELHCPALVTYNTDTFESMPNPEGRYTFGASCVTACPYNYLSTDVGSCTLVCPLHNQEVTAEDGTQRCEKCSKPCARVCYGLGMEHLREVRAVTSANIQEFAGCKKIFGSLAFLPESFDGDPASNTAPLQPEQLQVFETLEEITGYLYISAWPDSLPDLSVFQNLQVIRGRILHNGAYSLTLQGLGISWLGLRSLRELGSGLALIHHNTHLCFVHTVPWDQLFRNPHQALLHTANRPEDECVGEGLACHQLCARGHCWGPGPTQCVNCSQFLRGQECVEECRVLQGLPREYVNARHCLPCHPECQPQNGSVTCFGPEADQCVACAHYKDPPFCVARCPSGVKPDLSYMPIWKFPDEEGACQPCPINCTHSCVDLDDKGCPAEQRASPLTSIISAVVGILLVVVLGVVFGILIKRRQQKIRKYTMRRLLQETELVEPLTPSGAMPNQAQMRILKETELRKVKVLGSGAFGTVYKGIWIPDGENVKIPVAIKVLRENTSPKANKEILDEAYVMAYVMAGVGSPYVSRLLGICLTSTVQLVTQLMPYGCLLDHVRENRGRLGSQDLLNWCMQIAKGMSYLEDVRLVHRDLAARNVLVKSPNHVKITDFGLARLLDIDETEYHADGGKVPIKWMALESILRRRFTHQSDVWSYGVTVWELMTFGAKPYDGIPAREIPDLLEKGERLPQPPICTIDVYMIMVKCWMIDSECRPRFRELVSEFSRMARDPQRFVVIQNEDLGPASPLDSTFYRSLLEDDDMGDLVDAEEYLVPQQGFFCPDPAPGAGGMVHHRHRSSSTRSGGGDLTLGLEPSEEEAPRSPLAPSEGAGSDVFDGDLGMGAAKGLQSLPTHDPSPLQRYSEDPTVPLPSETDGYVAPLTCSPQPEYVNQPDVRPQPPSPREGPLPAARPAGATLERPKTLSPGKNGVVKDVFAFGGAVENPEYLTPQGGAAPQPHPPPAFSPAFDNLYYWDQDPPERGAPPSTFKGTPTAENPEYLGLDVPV

## C=CC(=O)Nc1cc(Nc2nccc(Nc3cc(Cl)c(F)cc3C(C)(C)O)n2)c(OC)cc1N1CC[C@@H](N(C)C)C1 [Form A, (R)-N-(5-((4-((5-chloro-4-fluoro-2-(2-hydroxypropan-2-yl)phenyl)amino)pyrimidin-2-yl)amino)-2-(3-(dimethylamino)pyrrolidin-1-yl)-4-methoxyphenyl)acrylamide]
HER2 A775_G776insYVMA
  IC50: 0.00384 µM
EGFR 19Del
  IC50: 0.00213 µM
3T3_YVMA
  GI50: 0.0443 µM
[1]; Acetonitrile
  Solubility: S < 2.14 mg/ml
[1]; EtOH, organic solvent or mixture, EtOH, read-out: Solubility
  Solubility: 13400 to 17800 µg/mL (≈ 22.9 to 30.5 mM)
[1]; Ethyl acetate
  Solubility: S < 2.16 mg/ml
[1]; MTBE, organic solvent or mixture, MTBE, read-out: Solubility
  Solubility: < 1820 µg/mL
[1]; MeOH, organic solvent or mixture, MeOH, read-out: Solubility
  Solubility: 24800 to 49500 µg/mL (≈ 42.4 to 84.7 mM)
[1]; THF, organic solvent or mixture, THF, read-out: Solubility
  Solubility: 17200 to 25800 µg/mL (≈ 29.4 to 44.1 mM)
[1]; acetone, organic solvent or mixture, Acetone, read-out: Solubility
  Solubility: 5120 to 5690 µg/mL (≈ 8.77 to 9.74 mM)
[1]; isopropanol, organic solvent or mixture, Isopropanol, read-out: Solubility
  Solubility: 4450 to 4940 µg/mL (≈ 7.62 to 8.46 mM)
[1]; water, read-out: Solubility
  Solubility: < 2040 µg/mL
Ba/F3_NPH
  GI50: 0.0582 µM
EGFR H773_V774insNPH
  IC50: 0.0324 µM
EGFR L858R/T790M
  IC50: 0.0021 µM
[2]; 25 mg/kg
  Cmax: 199 ng/mL
  AUC(0-t): 2130 ng·h/mL
  half-life: 4.4 h
  Tmax: 4 h
[2]; 75 mg/kg
  Cmax: 506 ng/mL
  AUC(0-t): 6870 ng·h/mL
  half-life: 6 h
  Tmax: 4 h
A431
  GI50: 0.0422 µM
[3]; 0% water/acetone, water activity 0, 1 d
  XRPD results of slurry in different water activity solvent: Form A
[3]; 0% water/acetone, water activity 0, 3 d
  XRPD results of slurry in different water activity solvent: Form A
[3]; 0% water/acetone, water activity 0, 7 d
  XRPD results of slurry in different water activity solvent: Form A + B
[3]; 3% water/acetone, water activity 0.312, 3 d
  XRPD results of slurry in different water activity solvent: Form A
[3]; 3% water/acetone, water activity 0.312, 7 d
  XRPD results of slurry in different water activity solvent: Form A + B
[3]; 30% water/acetone, water activity 0.747, 1 d
  XRPD results of slurry in different water activity solvent: Form A
[3]; 30% water/acetone, water activity 0.747, 3 d
  XRPD results of slurry in different water activity solvent: Form A
[3]; 30% water/acetone, water activity 0.747, 7 d
  XRPD results of slurry in different water activity solvent: Form A + B
[3]; water, 7 d
  XRPD results of slurry in different water activity solvent: Form A
[4]; FaSSIF, 0.5 h
  Solubility: 170 µg/mL (≈ 0.291 mM)
[4]; FaSSIF, 2 h
  Solubility: 190 µg/mL (≈ 0.325 mM)
[4]; FaSSIF, 24 h
  Solubility: 260 µg/mL (≈ 0.445 mM)
[4]; FeSSIF, 0.5 h
  Solubility: 4600 µg/mL (≈ 7.88 mM)
[4]; FeSSIF, 2 h
  Solubility: 6880 µg/mL (≈ 11.8 mM)
[4]; FeSSIF, 24 h
  Solubility: 11640 µg/mL (≈ 19.9 mM)
[4]; SGF, 0.5 h
  Solubility: 23120 µg/mL (≈ 39.6 mM)
[4]; SGF, 2 h
  Solubility: 24350 µg/mL (≈ 41.7 mM)
[4]; SGF, 24 h
  Solubility: 24410 µg/mL (≈ 41.8 mM)
[4]; SIF, 0.5 h
  Solubility: 29 µg/mL (≈ 0.0496 mM)
[4]; SIF, 2 h
  Solubility: 40 µg/mL (≈ 0.0685 mM)
[4]; SIF, 24 h
  Solubility: 40 µg/mL (≈ 0.0685 mM)
[5]
  DVS (ΔW %, 80% RH): 0.63%
[6]; 50° C., vacuum, at least 2 days
  Stability of pure form during drying process: stable
[6]; mixture of Form A and Form B
  Form change during the drying process: converted into Form B
[7]; Female (individual animals)
  AUC0-24 h: 2.30 hr*μM/(mg/kg) and 1.80 hr*μM/(mg/kg)
[7]; Male (individual animals)
  AUC0-24 h: 3.47 hr*μM/(mg/kg) and 5.47 hr*μM/(mg/kg)
PC-9
  GI50: 0.00476 µM
EGFR Wildtype
  IC50: 0.0431 µM
NCI-H1975
  GI50: 0.00222 µM

Source: patent US20250197377A1, “NOVEL PHARMACEUTICAL SALTS AND POLYMORPHIC FORMS OF AN ERBB AND BTK INHIBITOR” (DIZAL (JIANGSU) PHARMACEUTICAL CO., LTD., priority 2021, published 2025)
